According to ChEMBL document CHEMBL3232969, “Structure-based design and synthesis of tricyclic IAP (Inhibitors of Apoptosis Proteins) inhibitors” (Bioorg Med Chem Lett, 2014):
Converted amounts (≈) assume the structure as drawn.

How the values were obtained:
[1] = Lipophilicity, log D of the compound; details: octanol/water
[2] = Intrinsic clearance in human liver microsomes
[3] = target: E3 ubiquitin-protein ligase XIAP (Homo sapiens, UniProt P98170); assay: Inhibition of XIAP BIR3 domain (unknown origin) by fluorescence polarization assay
Sequence of E3 ubiquitin-protein ligase XIAP (P98170 whole entry, the tested form may be a part): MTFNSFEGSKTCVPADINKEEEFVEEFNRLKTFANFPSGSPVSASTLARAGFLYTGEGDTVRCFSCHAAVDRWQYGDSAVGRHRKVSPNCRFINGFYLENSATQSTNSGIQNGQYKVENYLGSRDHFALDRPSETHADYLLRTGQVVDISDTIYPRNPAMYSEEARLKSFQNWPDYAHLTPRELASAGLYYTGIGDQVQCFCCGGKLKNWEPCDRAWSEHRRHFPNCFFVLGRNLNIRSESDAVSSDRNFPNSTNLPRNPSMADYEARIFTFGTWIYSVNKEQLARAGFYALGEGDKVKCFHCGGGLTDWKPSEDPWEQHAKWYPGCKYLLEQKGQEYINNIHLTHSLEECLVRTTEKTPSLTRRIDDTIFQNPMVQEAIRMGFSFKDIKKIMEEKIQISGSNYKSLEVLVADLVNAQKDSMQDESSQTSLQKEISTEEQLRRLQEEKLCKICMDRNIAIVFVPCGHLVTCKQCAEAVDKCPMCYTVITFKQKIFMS

[4] = test system: MDA-MB-231; assay: Growth inhibition of human MDA-MB-231 cells; format: functional; details: Homo sapiens, MDA-MB-231
[5] = Aqueous solubility of the compound
[6] = Percentage unbound in human plasma

SMILES	logD ([1]; logD)	microsomal CLint ([2]; liver microsomes, CLH)	IC50 [3]	GI50 [4]	solubility [5]	fraction unbound ([6]; Fu)	microsomal CLint ([2]; microsomes, CLH)	logD [1]	microsomal CLint ([2]; liver microsomes)	fraction unbound [6]
CN[C@@H](C)C(=O)N[C@H]1CCC[C@H]2C[C@H]3CCN(CC4CCCCC4)C[C@H]3N2C1=O	0.9	8.9 µL/min/mg	> 10000 nM	2000 nM	–	–	–	–	–	–
CN[C@@H](C)C(=O)N[C@H]1CCC[C@H]2C[C@H]3CCN(CCc4ccc(Cl)c(Cl)c4)C[C@H]3N2C1=O	2.3	28 µL/min/mg	–	260 nM	> 1000 µM	0.065	–	–	–	–
CN[C@@H](C)C(=O)N[C@H]1CCC[C@H]2C[C@H]3CCN(CCc4ccccc4OC)C[C@H]3N2C1=O	0.9	< 4 µL/min/mg	–	230 nM	> 1000 µM	0.34	–	–	–	–
CN[C@@H](C)C(=O)N[C@H]1CCC[C@H]2C[C@H]3CCN(C(=O)Cc4ccccc4)C[C@H]3N2C1=O	0.4	6.5 µL/min/mg	–	320 nM	> 1000 µM	0.66	–	–	–	–
CN[C@@H](C)C(=O)N[C@H]1CCC[C@H]2C[C@H]3CCN(CCc4ccccc4)C[C@H]3N2C1=O	1.3	< 4 µL/min/mg	–	320 nM	> 1000 µM	0.51	–	–	–	–
CN[C@@H](C)C(=O)N[C@H]1CCC[C@H]2C[C@H]3CCN(C(=O)OCc4ccccc4)C[C@H]3N2C1=O	–	–	–	> 369 nM	–	0.42	20 µL/min/mg	–	–	–
CN[C@@H](C)C(=O)N[C@H]1CCC[C@H]2C[C@H]3CCN(CCc4ccccc4C)C[C@H]3N2C1=O	1.3	6.8 µL/min/mg	–	370 nM	> 1000 µM	0.48	–	–	–	–
CN[C@@H](C)C(=O)N[C@H]1CCC[C@H]2C[C@H]3CCN(CCc4scnc4C)C[C@H]3N2C1=O	0.3	–	–	4500 nM	> 1000 µM	–	–	–	–	–
CN[C@@H](C)C(=O)N[C@H]1CCC[C@H]2C[C@H]3CCN(Cc4ccccc4)C[C@H]3N2C1=O	0.8	7.1 µL/min/mg	> 10000 nM	> 11000 nM	> 1000 µM	0.52	–	–	–	–
CN[C@@H](C)C(=O)N[C@H]1CCC[C@H]2C[C@H]3CCN(CCc4ccc(C(F)(F)F)cc4)C[C@H]3N2C1=O	2.1	5.2 µL/min/mg	> 10000 nM	970 nM	> 1000 µM	0.18	–	–	–	–
CN[C@@H](C)C(=O)N[C@H]1CCC[C@H]2C[C@H]3CCN(CCc4ccccn4)C[C@H]3N2C1=O	-0.2	–	> 10000 nM	10000 nM	–	–	–	–	–	–
CN[C@@H](C)C(=O)N[C@H]1CCC[C@H]2C[C@H]3CCN(CCc4ccc(OC)cc4)C[C@H]3N2C1=O	1	< 4 µL/min/mg	–	2600 nM	> 1000 µM	0.47	–	–	–	–
CN[C@@H](C)C(=O)N[C@H]1CCC[C@H]2C[C@H]3CCN(CCC4=C(C)OCN4C)C[C@H]3N2C1=O	0.1	–	> 10000 nM	–	> 1000 µM	–	–	–	–	–
CN[C@@H](C)C(=O)N[C@H]1CCC[C@H]2C[C@H]3CCN(C(=O)Nc4ccccc4)C[C@H]3N2C1=O	0.6	6.7 µL/min/mg	–	3900 nM	> 1000 µM	0.62	–	–	–	–
CN[C@@H](C)C(=O)N[C@H]1CCC[C@H]2C[C@H]3CCN(CCc4ccc(Cl)cc4)C[C@H]3N2C1=O	1.8	6.6 µL/min/mg	–	340 nM	> 1000 µM	0.24	–	–	–	–
CN[C@@H](C)C(=O)N[C@H]1CCC[C@H]2C[C@H]3CCN(CCc4ccc([N+](=O)[O-])cc4)C[C@H]3N2C1=O	1	< 4 µL/min/mg	–	280 nM	> 1000 µM	0.47	–	–	–	–
CN[C@@H](C)C(=O)N[C@H]1CCC[C@H]2C[C@H]3CCN(C(c4ccccc4)c4ccccc4)C[C@H]3N2C1=O	2.7	14 µL/min/mg	> 10000 nM	–	> 1000 µM	0.049	–	–	–	–
CN[C@@H](C)C(=O)N[C@H]1CCC[C@H]2C[C@H]3CCN(CCCc4ccccc4)C[C@H]3N2C1=O	1.6	–	> 10000 nM	> 11000 nM	–	0.47	–	–	–	–
CN[C@@H](C)C(=O)N[C@H]1CCC[C@H]2C[C@H]3CCN(CCc4cccc(OC)c4)C[C@H]3N2C1=O	0.9	< 4 µL/min/mg	–	670 nM	> 1000 µM	0.47	–	–	–	–
CN[C@@H](C)C(=O)N[C@H]1CCC[C@H]2C[C@H]3CCN(CCc4nc5cc(C)ccc5[nH]4)C[C@H]3N2C1=O	1.3	9.1 µL/min/mg	> 10000 nM	–	> 1000 µM	–	–	–	–	–
CN[C@@H](C)C(=O)N[C@H]1CCC[C@H]2C[C@H]3CCN(C(=O)Oc4ccccc4)C[C@H]3N2C1=O	–	–	–	910 nM	700 µM (≈ 300 µg/mL)	–	–	0.7	6.3 µL/min/mg	0.51
CN[C@@H](C)C(=O)N[C@H]1CCC[C@H]2C[C@H]3CCN(CCc4c[nH]c5ccccc45)C[C@H]3N2C1=O	0.9	< 4 µL/min/mg	–	490 nM	> 1000 µM	–	–	–	–	–
CN[C@@H](C)C(=O)N[C@H]1CCC[C@H]2C[C@H]3CCN(CCc4ccc(Br)cc4)C[C@H]3N2C1=O	2.2	4.7 µL/min/mg	–	28 nM	> 1000 µM	0.17	–	–	–	–
CN[C@@H](C)C(=O)N[C@H]1CCC[C@H]2C[C@H]3CCN(CCc4cccc(C)c4)C[C@H]3N2C1=O	1.3	6.9 µL/min/mg	–	310 nM	> 1000 µM	0.47	–	–	–	–
CN[C@@H](C)C(=O)N[C@H]1CCC[C@H]2C[C@H]3CCN(CCc4ccccc4F)C[C@H]3N2C1=O	1.4	< 4 µL/min/mg	–	96 nM	–	0.49	–	–	–	–
CN[C@@H](C)C(=O)N[C@H]1CCC[C@H]2C[C@H]3CCN(CCc4ccc(C)cc4)C[C@H]3N2C1=O	1.6	< 4 µL/min/mg	–	160 nM	> 1000 µM	0.32	–	–	–	–
CN[C@@H](C)C(=O)N[C@H]1CCC[C@H]2C[C@H]3CCN(CCc4ccc(O)cc4)C[C@H]3N2C1=O	0.2	–	–	200 nM	> 1000 µM	–	–	–	–	–
CN[C@@H](C)C(=O)N[C@H]1CCC[C@H]2C[C@H]3CCN(C(=O)C(c4ccccc4)c4ccccc4)C[C@H]3N2C1=O	1.4	27 µL/min/mg	–	3000 nM	> 1000 µM	0.039	–	–	–	–
CN[C@@H](C)C(=O)N[C@H]1CCC[C@H]2C[C@H]3CCN(CC(C)C)C[C@H]3N2C1=O	0.1	–	> 10000 nM	–	–	–	–	–	–	–
